Assay results taken from EP2272817A1, “PAI-1 INHIBITOR” (Institute of Medicinal Molecular Design, Inc., priority 2008, dated 2009).

Target: recombinant human PAI-1 (Homo sapiens, UniProt P05121)
Assay: Test Example 2: Human PAI-1 Inhibitory Activity (pH 7.4 HEPES buffer, 10 minutes incubation with two-chain tPA)
Format: biochemical
Design: purchased Molecular Innovations, Inc
Settings: read-out: Inhibition Rate of PAI-1 Activity (%)
Procedure: 0.1 M HEPES, 0.1 M NaCl. 1 mM EDTA. 0.1 % Polyethylene glycol 8,000 (Hampton Research Corporation),
2 mM Dimethyldecylphoshine oxide [Apo-10] (Fluka Corporation)

recombinant human PAI-1, sequence (P05121 24-402): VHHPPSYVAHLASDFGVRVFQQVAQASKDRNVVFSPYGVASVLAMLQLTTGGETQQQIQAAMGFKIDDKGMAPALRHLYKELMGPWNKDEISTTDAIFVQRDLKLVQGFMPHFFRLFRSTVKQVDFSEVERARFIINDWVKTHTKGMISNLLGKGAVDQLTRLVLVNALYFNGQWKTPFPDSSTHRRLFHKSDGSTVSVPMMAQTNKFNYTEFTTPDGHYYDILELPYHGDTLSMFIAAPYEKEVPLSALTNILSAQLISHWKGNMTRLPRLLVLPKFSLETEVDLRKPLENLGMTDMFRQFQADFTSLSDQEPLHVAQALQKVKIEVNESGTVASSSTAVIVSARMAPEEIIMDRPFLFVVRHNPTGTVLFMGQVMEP

Structure (SMILES) | inhibition at 0.1 µM | inhibition at 0.3 µM | inhibition at 1 µM | inhibition at 3 µM | inhibition at 10 µM | inhibition at 25 µM
CCCCCOc1ccc(-c2ccc(Oc3ccc(C(C)(C)C)cc3)c(OCC(=O)O)c2)cc1 [Compound 454] | 11% | 17% | > 99% | > 99% |  | 
CCCCCOc1ccc(-c2ccc(OC(F)(F)F)cc2)cc1N(CCCOCc1ccccc1)C(=O)C(=O)O [Compound 655] | 3% | 0% | 44% | 97% |  | 
CCCCC(Oc1ccc(-c2ccc(OC(F)(F)F)cc2)cc1Oc1ccc(C(C)(C)C)cc1)C(=O)O (stereo not drawn) [Compound 305] | 6% | 9% | 54% | 88% |  | 
CC(C)(C)c1ccc(Oc2cc(Nc3ccc(OC(F)(F)F)cc3)ccc2/C=C/C(=O)O)cc1 [Compound 531] | 3% | 38% | 94% | 96% |  | 
CC(C)(C)c1ccc(Sc2cc(-c3ccc(OC(F)(F)F)cc3)ccc2C(=O)O)cc1 [Compound 547] | 4% | 17% | 97% | > 99% |  | 
CCCCCCCCCOc1cc(-c2ccc(OC(F)(F)F)cc2)ccc1N(CCCCc1ccccc1)C(=O)C(=O)O [Compound 380] | 76% | 96% | 97% | > 99% |  | 
CC(C)(C)c1ccc(Oc2ccc(-c3ccc(C(C)(C)C)cc3)cc2OCC(=O)O)cc1 [Compound 453] | 4% | 15% | 96% | > 99% |  | 
CC(C)(C)c1ccc(Oc2cc(-c3ccc4ccccc4c3)ccc2/C=C/C(=O)O)cc1 [Compound 469] | 4% | 22% | 96% | > 99% |  | 
O=C(O)C(=O)N(CCCCc1ccccc1)c1cc(-c2ccc(OC(F)(F)F)cc2)ccc1OC1CCCCC1 [Compound 368] | 0% | 22% | 95% | 85% |  | 
CCCCCCC(Oc1cc(-c2ccc(OC(F)(F)F)cc2)ccc1Oc1ccc(C(C)(C)C)cc1)C(=O)O (stereo not drawn) [Compound 323] | 19% | 16% | 91% | 82% |  | 
CCCCN(CC(=O)O)c1cc(-c2ccc(OC(F)(F)F)cc2)ccc1Oc1ccc(C(C)(C)C)cc1 [Compound 428] | 18% | 36% | 92% | 94% |  | 
CCCCCCCOc1cc(-c2ccc(OC(F)(F)F)cc2)ccc1N(CCCCc1ccccc1)C(=O)C(=O)O [Compound 386] | 5% | 18% | > 99% | > 99% |  | 
CCC(C)(C)c1ccc(Oc2cc(-c3ccc(OC(F)(F)F)cc3)ccc2CCC(=O)O)cc1 [Compound 475] | 4% | 27% | 94% | > 99% |  | 
CCCCCCCCCCCCCCCOc1ccc(-c2ccc(OC(F)(F)F)cc2)cc1N(CCCCc1ccccc1)C(=O)C(=O)O [Compound 375] | 73% | 97% | > 99% | 79% |  | 
CC(C)c1ccccc1Oc1cc(-c2ccc(OC(F)(F)F)cc2)ccc1OCC(=O)O [Compound 513] | 17% | 7% | 69% | > 99% |  | 
CC(C)(C)c1ccc(Oc2cc(Oc3ccc(OC(F)(F)F)cc3)ccc2OCC(=O)O)cc1 [Compound 538] | 0% | 12% | 87% | 98% |  | 
O=C(O)C(=O)N(CCCCc1ccccc1)c1cc(-c2ccc(OC(F)(F)F)cc2)ccc1OCCC(F)(F)F [Compound 383] | 2% | 6% | 32% | 98% |  | 
CC(C)(C)c1ccc(Oc2cc(-c3ccc(Cl)cc3)ccc2OCC(=O)O)cc1 [Compound 457] | 21% | 18% | 63% | > 99% |  | 
O=C(O)COc1ccc(-c2ccc(OC(F)(F)F)cc2)cc1Oc1ccc(OCc2ccccc2)cc1 [Compound 492] | 5% | 20% | > 99% | > 99% |  | 
CCCCCOc1ccc(-c2cccc(OC(F)(F)F)c2)cc1N(CCCCc1ccccc1)C(=O)C(=O)O [Compound 391] | 10% | 8% | 69% | 89% |  | 
CC(C)(C)c1ccc(N(Cc2ccc(-c3ccccc3)cc2)C(=O)C(=O)O)cc1 [Compound 612] |  |  | 7% | 25% | 84% | > 99%

Structure (SMILES) | inhibition at 0.1 µM | inhibition at 0.3 µM | inhibition at 1 µM | inhibition at 3 µM | inhibition at 10 µM | inhibition at 25 µM
CCCCCCCOc1cc(N(CCCCc2ccccc2)C(=O)C(=O)O)ccc1-c1ccc(OC(F)(F)F)cc1 [Compound 650] | 16% | 40% | > 99% | > 99% |  | 
CCCCOc1ccc(-c2ccc(OC(F)(F)F)cc2)cc1C=CC(=O)O [Compound 405] |  |  | 14% | 63% | > 99% | 95%
CC(C)(C)c1ccc(Oc2cc(-c3ccc(OC(F)(F)F)cc3)ccc2C(=O)O)cc1 [Compound 434] | 14% | 8% | 66% | > 99% |  | 
CCCCCOc1cc(-c2cccc(C)c2)ccc1N(CCCCc1ccccc1)C(=O)C(=O)O [Compound 376] | 6% | 15% | 62% | 95% |  | 
CCCCOc1ccc(Oc2cc(-c3ccc(OC(F)(F)F)cc3)ccc2OCC(=O)O)cc1 [Compound 523] | 11% | 15% | 78% | > 99% |  | 
CC(C)(C)c1ccc(Oc2cc(-c3cccc(C(F)(F)F)c3)ccc2CCC(=O)O)cc1 [Compound 332] | 12% | 4% | 29% | > 99% |  | 
CC(C)(C)c1ccc(Sc2cc(-c3ccc(OC(F)(F)F)cc3)ccc2CCC(=O)O)cc1 [Compound 517] | 20% | 50% | 95% | > 99% |  | 
O=C(O)CCc1ccc(-c2ccc(OC(F)(F)F)cc2)cc1Oc1ccc(C(F)(F)F)cc1 [Compound 474] | 2% | 11% | 43% | > 99% |  | 
O=C(O)/C=C/c1ccc(-c2ccc(OC(F)(F)F)cc2)cc1Oc1ccc(OC(F)(F)F)cc1 [Compound 477] | 7% | 21% | 60% | > 99% |  | 
CC(C)(C)c1ccc(CN(C(=O)C(=O)O)c2ccc(N3CCN(c4ccc(OC(F)(F)F)cc4)CC3)cc2)cc1 [Compound 628] |  |  | 40% | > 99% | > 99% | 90%
CC(C)(C)c1ccc(Oc2ccc(Nc3ccc(OC(F)(F)F)cc3)cc2/C=C/C(=O)O)cc1 [Compound 431] | 0% | 0% | 77% | > 99% |  | 
O=C(O)C(=O)N(CCCCc1ccccc1)c1cc(-c2ccc(OC(F)(F)F)cc2)ccc1N1CCCCC1 [Compound 370] | 0% | 0% | 66% | 97% |  | 
CN(C(=O)c1ccc(N(Cc2ccc(C(C)(C)C)cc2)C(=O)C(=O)O)cc1)c1ccc(OC(F)(F)F)cc1 [Compound 618] |  |  | 0% | 24% | 78% | > 99%
CCCCCOc1ccc(-c2ccc(OC(F)(F)F)cc2)cc1CN(C(=O)C(=O)O)c1ccc(C(C)(C)C)cc1 [Compound 645] | 6% | 26% | 95% | > 99% |  | 
CCCCCOc1ccc(-c2ccc(C(F)(F)F)cc2)cc1N(CCCCc1ccccc1)C(=O)C(=O)O [Compound 390] | 4% | 12% | 79% | 87% |  | 
CC(C)(C)c1ccc(Oc2cc(-c3ccc(OC(F)(F)F)cc3)ccc2CC(=O)O)cc1 [Compound 334] | 0% | 1% | 21% | 87% |  | 
CCCCCOc1ccc(-c2ccc(C(C)C)cc2)cc1N(CCCCc1ccccc1)C(=O)C(=O)O [Compound 678] | 19% | 33% | 97% | 94% |  | 
CC(C)(C)[C@H]1CC[C@H](N(C(=O)C(=O)O)c2ccc(-c3ccc(OC(F)(F)F)cc3)cc2)CC1 [Compound 665] | 9% | 8% | 67% | > 99% |  | 
CC(C)(C)c1ccc(N(CC(=O)O)c2ccccc2Oc2ccc(OC(F)(F)F)cc2)cc1 [Compound 610] |  |  | 49% | 94% | 97% | 86%
CC(C)c1ccc(Oc2cc(-c3ccc(OC(F)(F)F)cc3)ccc2OCC(=O)O)cc1 [Compound 333] | 4% | 10% | 28% | 91% |  | 
CC(C)c1ccc(-c2ccc(/C=C/C(=O)O)c(Sc3ccc(C(C)(C)C)cc3)c2)cc1 [Compound 520] | 14% | 72% | > 99% | > 99% |  | 
